In patent publication US20250034216A1, “STEREOSELECTIVE COVALENT LIGANDS FOR ONCOGENIC AND IMMUNOLOGICAL PROTEINS” (The Scripps Research Institute, priority 2021, published 2025):

Key:
ESRP1_C551 = target: T1, ESRP1_C551 (Homo sapiens, UniProt Q6NXG1); assay: IA-DTB cysteine engagement; assay type: binding; settings: 22Rv1 cells, 20 μM probe, 1 h, relative to DMSO
T1 construct: endogenous in cells; host or cells: 22Rv1
T1 sequence (Q6NXG1 1-681): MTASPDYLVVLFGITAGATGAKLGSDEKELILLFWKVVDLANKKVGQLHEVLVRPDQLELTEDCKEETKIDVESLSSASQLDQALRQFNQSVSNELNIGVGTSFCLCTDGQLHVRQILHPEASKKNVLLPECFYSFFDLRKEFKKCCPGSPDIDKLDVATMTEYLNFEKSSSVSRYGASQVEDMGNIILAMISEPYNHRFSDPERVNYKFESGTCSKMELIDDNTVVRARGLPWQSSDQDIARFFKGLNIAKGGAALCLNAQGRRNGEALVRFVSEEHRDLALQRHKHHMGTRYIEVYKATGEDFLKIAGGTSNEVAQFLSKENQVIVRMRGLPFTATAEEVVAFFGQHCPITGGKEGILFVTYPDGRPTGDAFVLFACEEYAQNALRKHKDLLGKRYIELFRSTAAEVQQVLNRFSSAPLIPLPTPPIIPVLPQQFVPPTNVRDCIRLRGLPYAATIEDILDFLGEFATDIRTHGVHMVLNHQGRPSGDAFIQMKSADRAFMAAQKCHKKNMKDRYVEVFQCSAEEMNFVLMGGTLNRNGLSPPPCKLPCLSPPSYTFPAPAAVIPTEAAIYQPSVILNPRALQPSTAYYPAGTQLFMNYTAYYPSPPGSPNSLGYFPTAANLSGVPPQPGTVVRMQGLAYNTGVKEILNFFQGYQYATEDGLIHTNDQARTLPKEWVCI
Outline: (§1)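 Cells were treated in situ with electrophilic probes, then lysed, and the lysates (2 mg/mL protein) were labeled with IA-DTB for 1 h at ambient temperature. After reduction, alkylation and trypsin digestion, labeled peptides were streptavidin-enriched, TMT-labeled and fractionated. Engagement ratios are probe vs DMSO reporter intensities, averaged across replicates.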

CHUK_C406 = target: T2, CHUK_C406 (Homo sapiens, UniProt O15111); assay: IA-DTB cysteine engagement; assay type: binding; settings: 22Rv1 cells, 20 μM probe, 1 h, relative to DMSO
T2 construct: endogenous in cells; host or cells: 22Rv1
T2 sequence (O15111 1-745): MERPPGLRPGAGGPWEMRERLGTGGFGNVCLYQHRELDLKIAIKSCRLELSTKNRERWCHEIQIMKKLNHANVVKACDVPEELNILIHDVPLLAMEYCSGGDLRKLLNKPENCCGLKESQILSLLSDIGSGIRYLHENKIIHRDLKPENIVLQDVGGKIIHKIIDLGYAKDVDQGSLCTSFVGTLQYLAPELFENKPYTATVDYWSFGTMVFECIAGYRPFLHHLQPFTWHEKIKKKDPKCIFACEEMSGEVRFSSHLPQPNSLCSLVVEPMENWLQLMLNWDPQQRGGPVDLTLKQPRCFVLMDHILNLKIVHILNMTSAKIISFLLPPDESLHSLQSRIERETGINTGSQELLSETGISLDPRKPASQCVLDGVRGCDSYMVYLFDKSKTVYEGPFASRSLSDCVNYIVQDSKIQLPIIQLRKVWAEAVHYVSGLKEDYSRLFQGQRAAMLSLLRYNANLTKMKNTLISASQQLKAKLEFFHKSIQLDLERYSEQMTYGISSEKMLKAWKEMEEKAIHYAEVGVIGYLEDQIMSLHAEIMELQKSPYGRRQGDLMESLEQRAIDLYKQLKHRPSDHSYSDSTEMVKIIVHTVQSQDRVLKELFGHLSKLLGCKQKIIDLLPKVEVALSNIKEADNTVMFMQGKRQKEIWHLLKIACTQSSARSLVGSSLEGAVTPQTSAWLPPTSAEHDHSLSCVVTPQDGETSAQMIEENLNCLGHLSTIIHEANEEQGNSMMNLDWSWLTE
Outline: as §1

Structure (SMILES)	% engagement ESRP1_C551 (ESRP1_C551)	% engagement CHUK_C406 (CHUK_C406)
C=CC(=O)N1C[C@H](c2ccc(Br)cc2)[C@H]1C(=O)Nc1cccc2cccnc12 [MY-3A, (2S,3S)-1-acryloyl-3-(4-bromophenyl)-N-(quinolin-8-yl)azetidine-2-carboxamide]	6.5%	0%
C=CC(=O)N1C[C@@H](c2ccc(Br)cc2)[C@H]1C(=O)Nc1cccc2cccnc12 [MY-1A, (2S,3R)-1-acryloyl-3-(4-bromophenyl)-N-(quinolin-8-yl)azetidine-2-carboxamide]	51%	51.5%
C=CC(=O)N1C[C@H](c2ccc(Br)cc2)[C@@H]1C(=O)Nc1cccc2cccnc12 [MY-1B, (2R,3S)-1-acryloyl-3-(4-bromophenyl)-N-(quinolin-8-yl)azetidine-2-carboxamide]	73.5%	28.5%
C=CC(=O)N1C[C@H](c2ccc(Br)cc2)[C@H]1C(=O)Nc1cccc2cccnc12 [MY-3B, (2S,3S)-1-acryloyl-3-(4-bromophenyl)-N-(quinolin-8-yl)azetidine-2-carboxamide]	69%	97%
